Among the data in ChEMBL document CHEMBL1151331, “New cyclic peptides from the ascidian Lissoclinum patella” (J Nat Prod, 1998) are IC50 values, retold here.

The first assay is described as follows: Cytotoxicity against human multi drug-resistant CEM/VBL100 cells. In kind it is functional, cell-based.
A word on the IC50: it is the midpoint of a concentration-inhibition curve. `CC[C@]1(O)C[C@@H]2CN(CCc3c([nH]c4ccccc34)[C@@](C(=O)OC)(c3cc4c(cc3OC)N(C)[C@H]3[C@@](O)(C(=O)OC)[C@H](OC(C)=O)[C@]5(CC)C=CCN6CC[C@]43[C@@H]65)C2)C1` [VINBLASTINE] gave an IC50 of 90 nM.

Another assay is described as follows: Cytotoxicity against human multi drug-resistant CEM/VBL100 cells in presence of vinblastine. In kind it is functional, cell-based.
In the case of `CC[C@H](C)[C@@H]1NC(=O)c2csc(n2)[C@@H](C(C)C)NC(=O)[C@H]2N=C(O[C@@H]2C)[C@H]([C@@H](C)CC)NC(=O)c2csc(n2)[C@@H](C(C)C)NC(=O)[C@@H]2COC1=N2` [PATELLAMIDE A], the IC50 turned out to be 90 nM.

Take `CC[C@H](C)[C@@H]1NC(=O)c2csc(n2)[C@@H](C)NC(=O)[C@H]2N=C(O[C@@H]2C)[C@H](CC(C)C)NC(=O)c2csc(n2)[C@@H](Cc2ccccc2)NC(=O)[C@H]2N=C1O[C@@H]2C` [PATELLAMIDE B]: the IC50 was 12 nM. On the same count and under the same terms, under `CC[C@H](C)[C@@H]1NC(=O)c2csc(n2)[C@@H](C)NC(=O)[C@H]2N=C(O[C@@H]2C)[C@H](C(C)C)NC(=O)c2csc(n2)[C@@H](Cc2ccccc2)NC(=O)[C@H]2N=C1O[C@@H]2C` [PATELLAMIDE C] stands 12 nM.

For the molecule `CC[C@H](C)[C@@H]1NC(=O)c2csc(n2)[C@@H](Cc2ccccc2)NC(=O)[C@H]2N=C(O[C@@H]2C)[C@H](CC(C)C)NC(=O)c2csc(n2)[C@@H](C)NC(=O)[C@H]([C@H](C)O)NC1=O` [PATELLAMIDE G], the IC50 was 60 nM.

Consider `CC(C)C[C@H]1NC(=O)[C@H]([C@H](C)O)NC(=O)[C@H]2CSSC[C@@H](NC(=O)c3csc1n3)C(=O)N[C@@H]([C@H](C)O)C(=O)N[C@H](Cc1ccccc1)c1nc(cs1)C(=O)N2` [ULITHIACYCLAMIDE E], for which the 50% inhibitory concentration (IC50) came out at 112 nM. For `CC(C)C[C@H]1NC(=O)[C@H]([C@H](C)O)NC(=O)[C@H]2CSSC[C@@H](NC(=O)c3csc1n3)C1=N[C@H](C(=O)N[C@H](Cc3ccccc3)c3nc(cs3)C(=O)N2)[C@@H](C)O1` [ULITHIACYCLAMIDE F], the IC50 came out at 44 nM. Consider `CC(C)C[C@H]1NC(=O)[C@H]2N=C(O[C@@H]2C)[C@H]2CSSC[C@@H](NC(=O)c3csc1n3)C(=O)N[C@@H]([C@H](C)O)C(=O)N[C@H](Cc1ccccc1)c1nc(cs1)C(=O)N2` [ULITHIACYCLAMIDE G], for which the IC50 is 90 nM.
